Experimental data as given in PubChem BioAssay (NCI).
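Values below derive from 48-hour exposures of cells grown in 96-well plates, with endpoints linearly interpolated between the two concentrations bracketing the appropriate inhibition level. Abbreviation: GI50, concentration required for 50% inhibition of growth. TGI denotes the concentration required for complete inhibition of growth.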

Tests used:
Assay in all cases: NCI tumour cell line growth inhibition, 48 h
[1] = tested on: A498 renal
[2] = tested on: A549 NSCLC
[3] = tested on: HCT-116 colon
[4] = tested on: HOP-92 NSCLC
[5] = tested on: NCI-H226 lung
[6] = tested on: NCI-H23 lung
[7] = tested on: SK-MEL-28 melanoma
[8] = tested on: TK-10 renal
[9] = tested on: U251 CNS
[10] = tested on: UO-31 renal

Compound | GI50 [1] [µM] | TGI [1] [µM] | GI50 [2] [µM] | TGI [2] [µM] | GI50 [3] [µM] | TGI [3] [µM] | GI50 [4] [µM] | TGI [4] [µM] | GI50 [5] [µM] | TGI [5] [µM] | GI50 [6] [µM] | TGI [6] [µM] | GI50 [7] [µM] | TGI [7] [µM] | GI50 [8] [µM] | TGI [8] [µM] | GI50 [9] [µM] | TGI [9] [µM] | GI50 [10] [µM] | TGI [10] [µM]
O=C1CCC/C=C\C[C@H]2C=C(Cl)C(=O)/C2=C/C[C@H](CCCCC(F)(F)F)OC(=O)CCC/C=C\C[C@H]2C=C(Cl)C(=O)/C2=C/C[C@H](CCCCC(F)(F)F)O1 | 0.965 | 2.12 | 0.429 | 2.61 | 0.157 | 0.43 | 0.199 | 0.754 | 0.263 | 1.23 | 0.236 | 0.868 | 0.166 | 0.419 | 0.346 | 1.89 | 0.226 | 0.772 | 0.133 | 0.281
COc1ccc(CN2CCc3c(Cl)nc(N)nc3C2=O)c(OC)c1 | 23.7 | 81.5 | 47.2 | > 100 | 16.1 | 29.9 | 14.5 | 36 | 18.3 | 41.7 | 15.8 | 32.2 | 15.7 | 29.4 | 33.1 | 99.3 | 14.6 | 27.9 | 14 | 43.8
N#Cc1c(N)nn(C(=O)c2ccc(NC(=O)c3ccccn3)cc2)c1-c1ccc(Cl)cc1 | 15.1 | > 100 | 3.24 | 12.8 | 3.32 | > 100 | 2.31 | 9.5 | 3.08 | 31 | 3.77 | 34.8 | 5.68 | > 100 | 3.65 | 19.4 | 2.33 | 5.75 | 1.79 | 5.27
CC(=O)OC1COC(N2C(=O)C(=O)c3c(C)cc(Cl)nc32)C(OC(C)=O)C1OC(C)=O (centres undefined) |  | > 100 |  | > 100 |  | > 100 |  | > 100 |  | > 100 |  | > 100 |  | > 100 |  | > 100 |  | > 100 |  | > 100
CC1CN(CCO)CC(C)O1 (centres undefined) |  | > 100 |  | > 100 |  | > 100 |  | > 100 |  | > 100 |  | > 100 |  | > 100 |  | > 100 |  | > 100 |  | > 100
COc1ccc(/C=C2/SC(=Nc3c(C)nn(-c4ccccc4)c3N)NC2=O)cc1 | 1.07 | 2.79 | 2.74 | 24 | 3.3 | 12.5 | 1.4 | 14.4 | 8.28 | 45.3 | 5.69 | 59.5 | 11.6 | 50.5 | 7.12 | 57.3 | 4.75 | 34.7 | 2.83 | 19
COC1CC(OC2OC(CO)C(O)C(O)C2O)/C(=C\C#N)C(O)C1OC (centres undefined) |  | > 100 |  | > 100 |  | > 100 |  | > 100 |  | > 100 |  | > 100 |  | > 100 |  | > 100 |  | > 100 |  | > 100
O=c1c(Cl)nsnc1Cl |  | 28.8 |  | 65.4 |  | 20.5 |  | 13 |  | 53.2 |  | 50.5 |  | 35.1 |  | 7.93 |  | 35.9 |  | 74.5
O=C(CCCCCCc1nc2ccc(Br)cc2[nH]1)NO | 0.723 | 2.1 | 0.578 | 11.3 | 0.202 | 1.03 | 0.241 | 0.905 | 1.65 | 7.37 | 0.507 | 4.89 | 0.703 | 2.75 | 0.596 | 5.7 | 0.387 | 4.62 | 0.433 | 5.22
C[N+](C)(C)CC(=O)N/N=C(/C=C/c1ccccc1)CC1OC(=O)c2ccccc21 (centres undefined) |  | > 100 |  | > 100 |  | > 100 |  | > 10 |  | > 100 |  | > 10 |  | > 100 |  | > 100 |  | > 100 |  | > 100
CC(C)Oc1cc(OCC(=O)O)cc(C(=O)N(CCC(N)=O)C(=O)Nc2ccc(C(=O)O)cc2OC(C)C)c1 | > 100 | > 100 | > 100 | > 100 | > 100 | > 100 | > 100 | > 100 | > 100 | > 100 | > 100 | > 100 | > 100 | > 100 | > 100 | > 100 | > 100 | > 100 | > 100 | > 100
Nc1nc2nc3c(nc2c(=O)[nH]1)CN(c1ccc(C(=O)O)cc1)C3=O |  | > 100 |  | > 100 |  | > 100 |  | > 100 |  | > 100 |  | > 100 |  | > 100 |  | > 100 |  | > 100 |  | > 100
CCCCNC(=S)Nn1c(-c2ccccc2)nc2ccccc2c1=O |  | > 100 |  | > 100 |  | > 100 |  | > 100 |  | > 100 |  | > 100 |  | > 100 |  | > 100 |  | > 100 |  | > 100
Cc1cc2c(-c3nc4ccccc4[nH]3)c(O)c(O)cc2c(O)c1-c1c(C)cc2c(-c3nc4ccccc4[nH]3)c(O)c(O)cc2c1O | 0.00875 | 0.0374 | 0.0117 | 9.66 | 0.00866 | 3.29 | 0.0232 | 1.54 | 0.0563 | 0.827 | 0.0289 | 1.07 | 0.0976 | 15.8 | 0.0386 | > 42.1 | 0.0174 |  | 0.042 | 0.218
CCCOC(=O)C1CCC(=O)N1C(=O)C(Cl)Cl (centres undefined) |  | > 100 |  | > 100 |  | > 100 |  | > 100 |  | > 100 |  | > 100 |  | > 100 |  | > 100 |  | > 100 |  | > 100
C=C1C(=O)O[C@@H]2[C@@H]3O[C@@](C)(CC/C=C(\C)CCC[C@@H]2C)[C@H](O)C[C@@H]13 | 8.87 | 21.3 | 3.73 | 14.7 | 1.49 | 2.87 | 1.7 | 4.58 | 12.5 | 26.3 | 3.71 | 16.5 | 3.13 | 12.2 | 1.89 | 3.46 | 3.75 | 15.6 | 1.4 | 2.93
N#Cc1c([N+](=O)[O-])cc(C(F)(F)F)cc1[N+](=O)[O-] |  | 32.9 |  | 37.6 |  | 20 |  | 4.01 |  | 37.3 |  | 19.2 |  | 21.2 |  | 18.1 |  | 33.7 |  | 33.5
